For 9 compounds, TGI and GI50 results are on record in PubChem BioAssay (NCI).

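Each compound was tested at five concentrations against cells in 96-well plates for 48 hours. Abbreviation: GI50, concentration required for 50% inhibition of growth. TGI: total growth inhibition.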

Assay in all cases: NCI tumour cell line growth inhibition, 48 h
Test [1] has as its system KM12 colon.
In test [2] the test system is SF-268 CNS.
Test [3] concerns UACC-257 melanoma.
In test [4] the test system is NCI-H23 lung.
In test [5] the test system is K-562 leukemia.
For test [6], the system named is 786-0 renal.
Test [7] deals with SF-295 CNS.
Test [8] has as its system SK-MEL-28 melanoma.
Test [9] concerns HCT-15 colon.
Test [10] has as its system HCC-2998 colon.

With `CC(C)(C)c1ccc(OC(=O)Nc2ccc(O)c(C(=O)O)c2)cc1`, the TGI in test [1], in [2], in test [3], in [4], in test [5] and in test [6] was over 100 µM throughout. Besides, the TGI in test [7], in test [8] and in [9] was over 100 µM each time.

Turning to `O=C1NC(=O)C(=Nc2cccc3c(=O)[nH][nH]c(=O)c23)C(c2nc3ccccc3s2)C1=O` (stereo not drawn), the TGI in test [10], in [1], in test [2], in test [3], in test [4] and in [6] was over 100 µM in each case. Further, the TGI in test [7], in test [8] and in test [9] was over 100 µM in each case.

Take `COc1cc(-c2cc(-c3ccc(Nc4ccnc5cc(Cl)ccc45)cc3)nc(N3CCOCC3)n2)cc(OC)c1OC`: the GI50 in test [10] is 3.64 µM; in [2], 2.04 µM; in test [4], 2.2 µM; in test [5], 0.882 µM; in test [6], 2.08 µM; in [7], 1.95 µM. Also, the results for the GI50 in test [8] and in [9] were 1.98 µM and 1.52 µM, respectively. The TGI was over 100 µM in [10]; 5.7 µM in [2]; 6.22 µM in test [4]; 10.4 µM in test [5]; 4.81 µM in [6]; 4.12 µM in test [7]. The figures for the TGI in test [8] and in test [9] were 3.93 µM and 3.58 µM, respectively.

For the compound `COC(=O)C(=CNC(N)=O)C(=O)OC`, the TGI in test [1], in [2], in test [3], in test [4], in test [5] and in [6] was over 100 µM each time. The TGI in test [7], in [8] and in [9] was over 100 µM in each case.

For `COc1ccc2c(c1)CC[C@@H]1[C@@H]2CC[C@]2(C)[C@@H](NC(=O)/C=C/c3ccc(O)c(O)c3)CC[C@@H]12`, the GI50 in test [10] was 2.05 µM; in test [1], 2.28 µM; in [2], 2.66 µM; in test [3], 13.4 µM; in [4], 3.51 µM; in [6], 2.34 µM. Also, the results for the GI50 in test [7], in [8] and in test [9] were 12.8 µM, 18.5 µM and 3.2 µM, respectively. Besides, the TGI came to 4.19 µM in test [10]; 5.88 µM in [1]; 11 µM in [2]; 31.8 µM in [3]; 12.6 µM in test [4]; 5.48 µM in test [6]. In addition, the TGI in [7] was 27.1 µM; in test [8] it was over 100 µM; in [9], 15.4 µM.

As to `CC(=O)N1N=C(c2ccc(Nc3ccnc4cc(Cl)ccc34)cc2)CC1c1ccc(Cl)cc1` (stereo not drawn), the GI50 in [10] was over 100 µM; in test [1], 6.59 µM; in test [2], 9.1 µM; in [3], over 100 µM; in test [4], over 100 µM; in test [6], over 100 µM. In addition, the GI50 in [7] is 3.58 µM; in test [8] it was 4.88 µM; in test [9], 3.33 µM. Also, the TGI in test [10], in test [1], in test [2], in [3], in [4] and in test [6] was over 100 µM each time. The TGI in [7], in test [8] and in test [9] was over 100 µM each time.

With `Clc1ccc(-c2csc(Nc3cccc(-c4csc(-c5ccccc5)n4)c3)n2)cc1`, the GI50 in test [1] is 15.7 µM; in test [2], 8.68 µM; in test [3], 14.9 µM; in [4], 11.4 µM; in test [5], 7.11 µM; in test [6], 10.8 µM. Moreover, the results for the GI50 in test [7], in test [8] and in test [9] were 15.9 µM, 5.93 µM and 6.01 µM, respectively. The TGI in test [1] is over 50 µM; in [2], 19.6 µM; in test [3] it was 29 µM; in test [4], 26.2 µM; in test [5] it was 16.3 µM; in test [6] it was 21.1 µM. The TGI is over 50 µM in test [7], 15.6 µM in test [8] and 14.7 µM in test [9].

With `COc1ccc(C(c2ccc(OCCN(C)C)cc2)c2cc3ccccc3c3ccccc23)cc1` (stereo not drawn), the GI50 in test [10] is 1.8 µM; in test [1] it was 1.8 µM; in test [2], 1.71 µM; in test [4] it was 1.83 µM; in test [5] it was 1.49 µM; in test [6], 1.51 µM. The GI50 in test [7] is 1.77 µM; in test [8], 1.63 µM; in test [9], 1.28 µM. In addition, the TGI was found to be 3.34 µM in test [10]; 3.39 µM in test [1]; 3.26 µM in [2]; 3.8 µM in test [4]; 3.41 µM in test [5]; 2.91 µM in test [6]. Also, the values for the TGI in test [7], in [8] and in test [9] were 3.33 µM, 3.11 µM and 2.69 µM, respectively.

On to `Oc1ccc(O)c(-c2cc(-c3ccc(Cl)cc3)nn2-c2ccccc2)c1`, for which the GI50 in test [10] is 2.58 µM; in [1] it was 4.14 µM; in [2] it was 2.71 µM; in test [3] it was 4.95 µM; in test [4], 2.48 µM; in [5], 3.23 µM. The GI50 in test [6] was 2.21 µM; in [7], 20 µM; in test [9], 12.5 µM. For the same compound, the TGI in [10] worked out at 4.98 µM; in test [1], 18.4 µM; in [2], 12.2 µM; in test [3], 19.1 µM; in test [4], 9.24 µM; in [5] it was 12.1 µM. The TGI amounted to 5.4 µM in test [6], 39.2 µM in [7] and 25.5 µM in test [9].
